Test results from patent US10526292B2 (Parion Sciences, Inc., priority 2012, dated 2020).

What was measured:
Muc5B = Muc5B (Homo sapiens, UniProt Q9HC84); details: in vitro; cited from earlier work
ExLac rats = experiment: Tear volume in rat model of dry eye disease (lacrimal gland excision, ExLac Model); format: in vivo, Sprague Dawley rats; details: 5 μl test article solution per eye, tear volume by ZoneQuick thread over 6 h
Description: The effects of compounds on tear volume was assessed in a rat model of dry eye disease in which Sprague Dawley rats undergo surgical lacrimal gland excision (ExLac Model) to reduce normal tear volume. The lacrimal excision reduces normal tear volume by ˜50% (Table 2).
Both the ipsilateral and contralateral eyes were dosed with 5 μl of test article solution. Tear production was measured using the ZoneQuick cotton thread with impregnated phenol red dye. The folded end of the thread was held in the lateral-ventral conjunctival cul-de-sac for 10 seconds. The length of tear wicking onto the thread was determined by measuring the length of the thread that changes color from yellow to red. Use of a stereomicroscope was assist in the accurate measurement (recorded in millimeters) of the wicking/color change. Tear volume was assessed pre-dose, and 15, 30, 60, 120, and 360 minute post-dose. For reference, the effect of a saline vehicle is shown for ExLac rats and normal (no lacrimal excision surgery) rats.

[1] = Confocal microscopy assay of amiloride congener transport; format: in vitro ADME; details: applied to apical (epithelial) surface of mouse corneas, one hour at 37 C
From the text: Serial x-y images were obtained one hour post-drug addition by confocal microsopy.

[2] = In vitro drug metabolism: plasma stability, rat; format: in vitro ADME; details: 2.5 μM, 37° C., up to six hours
Description: (§1) The metabolic stability of 9 and 15 was assessed in plasma (rat, rabbit, dog and human) and hepatocytes (rat and dog). Compounds were added either directly to plasma or to hepatocyte suspensions at a final concentration of 2.5 or 10 μM, respectively, and incubated at 37° C. for up to six hours. Aliquots were removed at various time points and quenched. The amount of parent compound was quantified via UPLC-fluorescence analysis. The amount of parent compound remaining was calculated based on the total peak area at the time of sampling divided by the total peak area at initiation.

[3] = In vitro drug metabolism: plasma stability, rabbit; format: in vitro ADME; details: 2.5 μM, 37° C., up to six hours
Description: as §1

[4] = In vitro drug metabolism: plasma stability, dog; format: in vitro ADME; details: 2.5 μM, 37° C., up to six hours
Description: as §1

[5] = In vitro drug metabolism: plasma stability, human; format: in vitro ADME; details: 2.5 μM, 37° C., up to six hours
Description: as §1

[6] = In vitro drug metabolism: hepatocyte stability, rat; format: in vitro ADME; details: rat hepatocyte suspension, 10 μM, 37° C., up to six hours
Description: as §1

[7] = In vitro drug metabolism: hepatocyte stability, dog; format: in vitro ADME; details: dog hepatocyte suspension, 10 μM, 37° C., up to six hours
Description: as §1

[8] = In vitro drug metabolism: summary in words for plasma and hepatocytes among the species evaluated; format: in vitro ADME; details: plasma (rat, rabbit, dog, human) and hepatocytes (rat, dog)
Description: as §1

Row | Structure (SMILES) | Concentration required to fully reduce Muc5B (Muc5B) | 6 h Ocular Hydration (AUC0-6) (ExLac rats) | Penetration of the cornea (confocal x-z image, FIG. 16) [1] | Plasma Stability (amount of parent compound remaining) [2] | Plasma Stability (amount of parent compound remaining) [3] | Plasma Stability (amount of parent compound remaining) [4] | Plasma Stability (amount of parent compound remaining) [5] | Hepatocyte Stability (amount of parent compound remaining) [6] | Hepatocyte Stability (amount of parent compound remaining) [7] | Stability towards metabolic hydrolysis in plasma and hepatocytes [8]
1 | CC(=O)N[C@@H](CS)C(=O)O [NAC, N-acetyl cysteine] | 200 mM |  |  |  |  |  |  |  |  | 
2 | N=C(N)NCCCC[C@@H](N)C(=O)NCCCN(CCCNC(=O)[C@H](N)CCCCNC(=N)N)CCOc1ccc(CCCCNC(=N)NC(=O)c2nc(Cl)c(N)nc2N)cc1 [Compound 9, (2R,2′R)—N,N′-(3,3′-(2-(4-(4-(3-(3,5-diamino-6-chloropyrazine-2-carbonyl)guanidino)butyl)phenoxy)ethylazanediyl)bis(propane-3,1-diyl))bis(2-amino-6-guanidinohexanamide)] |  | 50.2 | remains associated with the apical (epithelial) surface | 87% | 89% | 103% | 101% | 100% | 94% | stable towards metabolic hydrolysis
